Results published in PubChem BioAssay (NCI).
“And” between values parts separate entries of the source, which are not always exact repeats. Equal values may be shown once.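 Tested at 5 concentrations; 48 h exposure; 96-well plates; endpoints linearly interpolated, else capped at highest concentration. GI50 marks 50% less growth. Definition used: TGI = concentration required for complete inhibition of growth.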 Where a SMILES comes first, the peptide text is derived from it. [ ]: non-standard residue; d: D form. The star is where a group is joined. ξ: configuration not given here. ξD = NC(CC(=O)O)C(=O)O; Boc = CC(C)(C)OC(=O)*; Aib = CC(C)(N)C(=O)O; OBn = c1ccc(CO*)cc1

Experiments:
Assay in all cases: growth of human tumour cells (NCI), 48 h
786-0 renal = tested on: 786-0 renal
DLD-1 colon = tested on: DLD-1 colon
HCT-15 colon = tested on: HCT-15 colon
LXFL 529 NSCLC = tested on: LXFL 529 NSCLC
M19-MEL melanoma = tested on: M19-MEL melanoma
MOLT-4 leukemia = tested on: MOLT-4 leukemia
NCI-H460 lung = tested on: NCI-H460 lung
OVCAR-8 ovarian = tested on: OVCAR-8 ovarian
SK-OV-3 ovarian = tested on: SK-OV-3 ovarian
SW-620 colon = tested on: SW-620 colon
BT-549 breast = tested on: BT-549 breast
DMS 114 small cell lung = tested on: DMS 114 small cell lung
DU-145 prostate = tested on: DU-145 prostate
MCF7 breast = tested on: MCF7 breast

Structure (SMILES)	TGI (786-0 renal)	TGI (DLD-1 colon)	TGI (HCT-15 colon)	TGI (LXFL 529 NSCLC)	TGI (M19-MEL melanoma)	TGI (MOLT-4 leukemia)	TGI (NCI-H460 lung)	TGI (OVCAR-8 ovarian)	TGI (SK-OV-3 ovarian)	TGI (SW-620 colon)	TGI (BT-549 breast) [µM]	TGI (DMS 114 small cell lung) [µM]	TGI (DU-145 prostate) [µM]	TGI (MCF7 breast) [µM]	GI50 (DLD-1 colon)	GI50 (MOLT-4 leukemia) [µM]	GI50 (NCI-H460 lung)	GI50 (SW-620 colon)	GI50 (DMS 114 small cell lung) [µM]	GI50 (HCT-15 colon) [µM]
CCOc1ccc(N(CC(=O)N2CC(=O)Nc3cc(C)c(C)cc32)C(C)=O)cc1	> 100 µM	> 100 µM	> 100 µM	> 100 µM	> 100 µM	> 100 µM	> 100 µM	> 100 µM	> 100 µM	> 100 µM										
O=C(CCN1CCCCC1)Nc1ccc2c(c1)C(=O)c1ccc(NC(=O)CCN3CCCCC3)cc1C2=O	3.8 µM	15 µM	7.63 µM	4.64 µM	> 100 µM	14.5 µM	3 µM	13.7 µM	26.4 µM	4.62 µM	27.8	34.7	26.9	5.91						
N=S(c1ccccc1[N+](=O)[O-])c1ccccc1[N+](=O)[O-]	3.93 µM and 4.67 µM	4.15 µM and 2.08 µM	2.06 µM and 3.72 µM	7.83 µM and 5.92 µM	12.3 µM and 6.84 µM	4.7 µM and 20.4 µM	21.5 µM and 32 µM	5.4 µM and 13.1 µM	17 µM and 15.7 µM	2.95 µM and 10 µM	3.13		7.38	0.266	1.81 µM and 0.636 µM	3.93	7.83 µM and 14.4 µM	1.14 µM and 2.47 µM		
COc1ccc(OC2(c3cc(OC)ccc3OC)OC(=O)c3ccccc32)cc1 (centres undefined)	> 100 µM	> 100 µM	> 100 µM	> 100 µM	> 100 µM	> 100 µM	> 100 µM	> 100 µM	> 100 µM	> 100 µM		> 100								
COc1cccc(C2=NC(C(C)C)CO2)c1OC (centres undefined)	> 100 µM	> 100 µM	> 100 µM	> 100 µM	> 100 µM	> 100 µM	> 100 µM	> 100 µM	> 100 µM	> 100 µM		> 100								
N#C/C(c1nc2ccccc2[nH]1)=c1\s/c(=C/c2ccccc2)c(=O)n1-c1ccccc1	> 100 µM	> 100 µM	> 100 µM	> 100 µM	> 100 µM	> 100 µM	> 100 µM	> 100 µM	> 100 µM	> 100 µM		> 100								
CC1(O)CC2C(CC1SC1CC3C(CC1(C)O)C3(C)C)C2(C)C (centres undefined)	> 100 µM	> 100 µM	> 100 µM	> 100 µM	63.4 µM	> 100 µM	> 100 µM	> 100 µM	> 100 µM			> 100								
COc1cc2c(c(OC)c1OC)-c1ccc(SC)c(=O)cc1[C@@H](NC(=O)c1cccc([N+](=O)[O-])c1)CC2	11.8 µM	> 100 µM	> 100 µM		> 100 µM	> 100 µM			0.0638 µM	> 100 µM		0.0365							0.0165	0.027
O=C1C(Cl)C(c2ccccc2Cl)N1n1cnc2ccccc2c1=O (centres undefined)	> 100 µM	> 100 µM	> 100 µM	> 100 µM	> 100 µM	> 100 µM	> 100 µM	> 100 µM	72.5 µM	> 100 µM		> 100								
CCOC(=O)c1c(CN2CCNCC2)nc2ccc(Cl)cc2c1-c1ccccc1	3.15 µM	10.1 µM	10.5 µM	3.2 µM	3.61 µM	4.57 µM	6.32 µM	11.7 µM	21.3 µM	4.87 µM	27	4.05	31.9	28.6						
CCc1cccc(C(C)C)c1NC(=O)/C(=N\NC(N)=O)C(C(=O)OC)c1cnc2ccccc2n1 (centres undefined)	> 100 µM	> 100 µM	> 100 µM	> 100 µM	32.4 µM	> 100 µM	80.7 µM	> 100 µM	> 100 µM	> 100 µM		54.2								
Cc1cc(N(CCC#N)CCC#N)ccc1/C=C1N=C(/C=C\c2ccccc2)N(NC(=O)CC(=O)Nc2ccccc2Cl)C\1=O	> 100 µM	> 100 µM	> 100 µM	> 100 µM	> 100 µM	> 100 µM	> 100 µM	> 100 µM	> 100 µM	> 100 µM		> 100								
CCOC(=O)C(C)NC(=O)NC12CC3CC(CC(F)(C3)C1)C2 (centres undefined)	> 100 µM	> 100 µM		> 100 µM	> 100 µM	> 100 µM	> 100 µM	> 100 µM	> 100 µM	> 100 µM		> 100								
CC(C)N(C(=O)C12C3C4C5C3C1(C(=O)O)C5C42)C(C)C (centres undefined)	> 100 µM	> 100 µM	> 100 µM	> 100 µM	> 100 µM	> 100 µM	> 100 µM	> 100 µM	> 100 µM	> 100 µM		> 100								
COc1cc([C@@H]2c3cc4c(cc3[C@@H](NCc3ccccc3F)C3COC(=O)[C@@H]32)OCO4)cc(OC)c1O (some centres undefined)	13.8 µM	> 100 µM	22.4 µM	88.2 µM	23.4 µM	7.4 µM	13.2 µM	> 100 µM	9.45 µM	39.1 µM		28.3								
CC(C)C1=Cc2ccc3c(c2C(=O)C1=O)CCCC3	6.02 µM	3.31 µM	9.03 µM	2.52 µM	8.59 µM		26.6 µM	13.4 µM	30.5 µM	14 µM		3.61	32							
COc1ccc2c(=O)c3ccoc3[nH]c2c1	> 100 µM		> 100 µM			> 100 µM	> 100 µM	> 100 µM	> 100 µM	> 100 µM	> 100		> 100	> 100						
O=C1NC(=O)C(CCC(=O)c2cccc3ccccc23)C(=O)N1	> 100 µM		> 100 µM			> 100 µM	> 100 µM	> 100 µM	> 100 µM	> 100 µM	> 100		> 100	> 100						

Structure (SMILES)	TGI (786-0 renal)	TGI (DLD-1 colon)	TGI (HCT-15 colon)	TGI (LXFL 529 NSCLC)	TGI (M19-MEL melanoma)	TGI (MOLT-4 leukemia)	TGI (NCI-H460 lung)	TGI (OVCAR-8 ovarian)	TGI (SK-OV-3 ovarian)	TGI (SW-620 colon)	TGI (BT-549 breast) [µM]	TGI (DMS 114 small cell lung) [µM]	TGI (DU-145 prostate) [µM]	TGI (MCF7 breast) [µM]	GI50 (DLD-1 colon)	GI50 (MOLT-4 leukemia) [µM]	GI50 (NCI-H460 lung)	GI50 (SW-620 colon)	GI50 (DMS 114 small cell lung) [µM]	GI50 (HCT-15 colon) [µM]
NC(=O)N/N=C(\CC1OC(=O)c2ccccc21)c1ccc([N+](=O)[O-])cc1 (centres undefined)	32 µM	47.9 µM	59.7 µM	> 100 µM	68.1 µM	> 100 µM	> 100 µM			> 100 µM										
Nc1ccc(Oc2ccc(C34CC5CC(C3)CC(c3ccc(Oc6ccc(N)cc6C(F)(F)F)cc3)(C5)C4)cc2)c(C(F)(F)F)c1	> 100 µM		> 100 µM			> 100 µM	37.9 µM	29.5 µM	35.4 µM	> 100 µM	52.1		> 100	33.8						
CCCCCCCCCCC/C=C(/C(=O)CCCO[Si](C)(C)C(C)(C)C)C(=O)OC	> 100 µM		> 100 µM			> 100 µM	> 100 µM	> 100 µM	> 100 µM	> 100 µM	> 100		> 100	> 100						
CC(C)(C)OC(=O)NC(CC(=O)OCc1ccccc1)C(=O)NC(C)(C)C(N)=O (centres undefined) (Boc-[ξD](OBn)-[Aib]-NH2)	> 100 µM		> 100 µM			> 100 µM	> 100 µM	> 100 µM	> 100 µM	> 100 µM	> 100		> 100	> 100						
CC(=O)NC(CCCCNCc1ccccc1)C(=O)NCc1ccccc1 (centres undefined)	> 100 µM	> 100 µM	> 100 µM	> 100 µM	> 100 µM	> 100 µM	> 100 µM	> 100 µM	> 100 µM	> 100 µM		> 100								
Nc1nc(Cl)c(N)c(NCC2(CO)CCC(OCc3ccccc3)C2)n1 (centres undefined)	> 100 µM		> 100 µM			> 100 µM	> 100 µM	> 100 µM	> 100 µM	> 100 µM	> 100		> 100	> 100						
C[C@]12CC[C@H]3[C@@H](CC=C4C[C@@H](O)CC[C@@]43C)[C@@H]1C/C(=C\c1ccncc1)[C@@H]2O	60.5 µM		58.9 µM			61.9 µM	42.2 µM	39.8 µM	79.6 µM	> 100 µM	19.9		49.6	59						
N#Cc1c(-c2ccc([N+](=O)[O-])cc2)c2c([nH]c1=O)-c1ccccc1CCC2	> 100 µM		> 100 µM			> 100 µM	> 100 µM	> 100 µM	> 100 µM	> 100 µM	85.9		> 100	> 100						
CCN(CC)CCCNc1ccc([N+](=O)[O-])c2nc3ccccc3c(N)c12	1.72 µM		2.55 µM			4.29 µM	1.44 µM	4.51 µM	3.4 µM	2.04 µM	3.32		> 10	2.24						
O=C(/C=C/c1ccc([N+](=O)[O-])cc1)N1CCN(CCOC(c2ccc(F)cc2)c2ccc(F)cc2)CC1	> 100 µM		> 100 µM			19 µM	> 100 µM	> 100 µM	> 100 µM	> 100 µM	> 100		> 100	> 100						
COCN1C(=O)[C@@H]2C[C@@H](O)CN2C(=O)c2ccccc21	> 100 µM		> 100 µM			> 100 µM	> 100 µM	> 100 µM	> 100 µM	> 100 µM	> 100		> 100	> 100						
Cc1[nH]c2ncn3[nH]c(=S)nc3c2c1Cc1ccccc1	> 100 µM		> 100 µM			> 100 µM	> 100 µM	> 100 µM	> 100 µM	> 100 µM	> 100		> 100	> 100						
COC(=O)C(Cc1nc2ccc(Cl)cc2[nH]c1=O)C(=O)C(=O)Nc1cc(C)ccc1C (centres undefined)	> 100 µM	> 100 µM	> 100 µM	> 100 µM	> 100 µM	> 100 µM	> 100 µM	> 100 µM	> 100 µM	> 100 µM		> 100								
FC(F)(F)c1ccc2c(-c3cc[nH]c3)ccnc2c1	32.1 µM		> 100 µM			59.3 µM	> 100 µM	> 100 µM	> 100 µM	> 100 µM	68.9		> 100	> 100						
CC(=O)NC1=NC(=O)/C(=C/c2ccccc2Cl)N1C	> 100 µM		> 100 µM			> 100 µM	> 100 µM	> 100 µM	> 100 µM	> 100 µM	> 100		> 100	> 100						
CC1(C)CN(CC(=O)O)CC(Cc2ccc(OCC(=O)O)cc2)N(CC(=O)O)CC(C)(C)SS1 (centres undefined)	> 100 µM		> 100 µM			> 100 µM	> 100 µM	> 100 µM	> 100 µM	> 100 µM	> 100		> 100	> 100						
CCOC(=O)C1=C(C(=O)OCC)SC2(S1)C(C(=O)OCC)=C(C(=O)OCC)Sc1c2ssc1=O	2.13 µM		2.72 µM			2.14 µM	21.9 µM	3.31 µM	10.9 µM	1.89 µM	4.51		2.2	3.5						
N#CC(NNC(=O)Cc1ccccc1)c1ccc([N+](=O)[O-])cc1 (centres undefined)	> 100 µM	> 100 µM	> 100 µM	> 100 µM	> 100 µM	> 100 µM	> 100 µM	> 100 µM	> 100 µM	> 100 µM										
